From patent EP0551200A1, “Protein phosphatase inhibitors for use in therapy” (priority 1992, dated 1993)

How the values were obtained:
c-jun = test: Northern blot analysis of c-jun gene expression in human fibroblasts; format: cell-based; conditions: OA 500 nM
Procedure: (§1) Quiescent human fibroblasts were incubated with TNF (500 units/ml) (a) or OA (500 nM) (b) for 0, 30, 60 min after which total cellular RNA was extracted. Blots of RNA from these cells were hybridized to radiolabeled (10⁶ cpm/ml) Egr-1 cDNA probe. c, the blot in b was stripped and reprobed with c-jun cDNA. Note: Egr-1 mRNA probe was not completely stripped from the blot. The autoradiograph of the blot is presented. d, regularly maintained cells were incubated wither with no additions (control, 0 time) or with OA for 1, 3, 5, 7 h and Northern analysis was carried out with an IL-6 cDNA probe (ATCC, Rockville, MD, US).
(§2) Preparation of RNA and Northern Analysis - Human fibroblasts (4 x 10⁶) were seeded in 175cm² tissue culture flasks and incubated at 37°C for 6 days in regular medium. The cells were fed with regular medium on day 3. On day 6 the medium was replaced by minimal essential medium containing 0.25% fetal calf serum and incubated for another 48 h to maintain the cells in a quiescent state. Quiescent or regularly maintained cells were treated with a specific agonist for the times indicated (see Fig. 7). The cells were harvested and total cytoplasmic RNA isolated by a one-step guanidinium thiocyanate/phenol/chloroform method. […] The blots were autoradiographed and quantitated by the Visage 2000 Image system (BioImage Products, Ann Arbor, MI, US).

IL-6 = test: Northern blot analysis of IL-6 gene expression in human fibroblasts; format: cell-based; conditions: regularly maintained cells
Procedure: as §1, §2

Egr-1 protein = test: Immunoprecipitation of 32P-labeled Egr-1 protein from Balb/c 3T3 cells; format: cell-based, mouse; conditions: 2 h treatment; OA 0.5 µM, calyculin A 25 nM, 20% fetal calf serum
Procedure: Quiescent Balb/c 3T3 cells were labeled with [³²P]-orthophosphate and incubated with either 20% fetal calf serum or okadaic acid (0.5 µM) for 2 h as described in "Experimental Procedures" of Example 2. Egr-1 protein(s) was immunoprecipitated by anti-Egr-1 antibody (R5232) and subjected to 7.5% SDS-PAGE. The dried SDS-gel was autoradiographed. lanes C, S and OA show immunoprecipitated proteins derived from quiescent cells, serum and okadaic acid-treated cells respectively. • (B). The immunoprecipitated Egr-1 protein(s) from okadaic acid-treated [³²P]-labeled Balb/c 3T3 cells was also subjected to 2-D gel electrophoresis as previously described (Guy et al, J. Biol. Chem. 266, 14343-14352, 1991). […]
The radioactivity of the in vitro transcribed RNA was determined and equal amounts of radioactive RNA from uninduced and okadaic acid treated cells were used to hybridize to specific plasmid (5 µg) previously applied to a nylon matrix with the aid of a slot blot applicator (Schleicher & Schuell, Keene, NH, US). […]
Okadaic acid or calyculin A was then added to a final concentration of 0.5 µM or 25 nM respectively and incubated for another 2 h. […] The immunoprecipitated proteins were analyzed by 7.5% SDS-PAGE as well as by two-dimensional gel electrophoresis as described previously (Guy et al, J. Biol. Chem. 266, 14343-14352, 1991). […]

For C=C1[C@@H](O)[C@@H]2O[C@]3(CC[C@H](/C=C/[C@@H](C)[C@@H]4CC(C)=C[C@@]5(O[C@H](C[C@@](C)(O)C(=O)O)CC[C@H]5O)O4)O3)CC[C@H]2O[C@@H]1[C@@H](O)C[C@H](C)[C@H]1O[C@@]2(CCCCO2)CC[C@H]1C [okadaic acid], the “time to induction of c-jun” value (c-jun) was ≤ 60 min, the “time of induction of IL-6” value (IL-6) was 7 h and the “Egr-1 phosphoprotein immunoprecipitated (in words)” value (Egr-1 protein) was “high cellular concentration of the about 100 kDa Egr-1 phosphoprotein”.
